Where two headings read alike, the source gives them in different places.
Assays:
Assay type in all cases: in vivo
[1] = test system: corn (Zea mays); experiment: Test B pre-/postemergence plant response; conditions: Zea mays, 240 h; for Corn plant response rating (crop injury, 0 = no effect, 100 = complete kill) at 125 g/ha: 125 g ai/ha; for Corn plant response rating (crop injury, 0 = no effect, 100 = complete kill) at 500 g/ha: 500 g ai/ha
In short: (§1)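 Seeds in loam–sand blend given preemergence soil spray; separately, plants at one- to two-leaf stage (2–10 cm) sprayed postemergence, compounds in non-phytotoxic solvent with surfactant. Injury rated visually versus untreated controls after ~10 days in greenhouse, 0 (no effect) to 100 (complete control).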

[2] = test system: pigweed (Amaranthus retroflexus); experiment: Test B pre-/postemergence plant response; conditions: Amaranthus retroflexus, 240 h, read-out: Plant response rating, Pigweed; for pest or weed control at 125 g/ha: 125 g ai/ha; for pest or weed control at 500 g/ha: 500 g ai/ha
In short: as §1

[3] = test system: wheat (Triticum aestivum); experiment: Test B pre-/postemergence plant response; conditions: Triticum aestivum, 240 h, read-out: Plant response rating, Wheat; for plant injury at 125 g/ha: 125 g ai/ha; for plant injury at 500 g/ha: 500 g ai/ha
In short: as §1

[4] = test system: barnyardgrass (Echinochloa crus-galli); experiment: Test B pre-/postemergence plant response; conditions: Echinochloa crus-galli, 240 h, read-out: Plant response rating, Barnyardgrass; for pest or weed control at 125 g/ha: 125 g ai/ha; for pest or weed control at 500 g/ha: 500 g ai/ha
In short: as §1

[5] = test system: giant foxtail (Setaria faberii); experiment: Test B pre-/postemergence plant response; conditions: Setaria faberi, 240 h, read-out: Plant response rating, Foxtail, Giant; for pest or weed control at 125 g/ha: 125 g ai/ha; for pest or weed control at 500 g/ha: 500 g ai/ha
In short: as §1

[6] = test system: galium (catchweed bedstraw, Galium aparine); experiment: Test D pre-/postemergence plant response; conditions: Galium; for pest or weed control at 31 g/ha: 31 g ai/ha; for pest or weed control at 62 g/ha: 62 g ai/ha; for pest or weed control at 125 g/ha: 125 g ai/ha; for pest or weed control at 250 g/ha: 250 g ai/ha
In short: (§2)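 Visual injury scoring (0–100) at 13 to 15 days in greenhouse. Preemergence sprays on seeded loam/sand; postemergence sprays on 1–4 leaf plants.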

[7] = test system: yellow nutsedge (Cyperus esculentus); experiment: Test D pre-/postemergence plant response; conditions: Cyperus; for pest or weed control at 31 g/ha: 31 g ai/ha; for pest or weed control at 62 g/ha: 62 g ai/ha; for pest or weed control at 125 g/ha: 125 g ai/ha; for pest or weed control at 250 g/ha: 250 g ai/ha
In short: as §2

[8] = test system: soybean (Glycine max); experiment: Test D pre-/postemergence plant response; conditions: Glycine max; for plant injury at 31 g/ha: 31 g ai/ha; for plant injury at 62 g/ha: 62 g ai/ha; for plant injury at 125 g/ha: 125 g ai/ha; for plant injury at 250 g/ha: 250 g ai/ha
In short: as §2

[9] = test system: large (Lg) crabgrass (Digitaria sanguinalis); experiment: Test D pre-/postemergence plant response; conditions: Digitaria sanguinalis; for pest or weed control at 31 g/ha: 31 g ai/ha; for pest or weed control at 62 g/ha: 62 g ai/ha; for pest or weed control at 125 g/ha: 125 g ai/ha; for pest or weed control at 250 g/ha: 250 g ai/ha
In short: as §2

[10] = test system: morningglory (Ipomoea coccinea); experiment: Test D pre-/postemergence plant response; conditions: Ipomoea, post-emergence, Postemergence
In short: as §2

[11] = post-emergence, postemergence, 0 to 100 scale, 0 no effect, 100 complete control
[12] = post-emergence, Postemergence, 0 to 100 scale (0 no effect, 100 complete control)
[13] = pre-emergence, Preemergence, 0 to 100 scale where 0 is no effect and 100 is complete control
[14] = post-emergence, Postemergence, scale 0 to 100, 0 no effect, 100 complete control, read-out: Plant response rating, Galium
[15] = pre-emergence, Preemergence, read-out: Plant response rating (scale 0 to 100), Galium
[16] = pre-emergence, Preemergence, scale 0 to 100 (0 no effect, 100 complete control), read-out: Plant response rating, Galium
[17] = post-emergence, Postemergence, scale 0 to 100, 0 no effect, 100 complete control, read-out: Plant response rating, Nutsedge, Yellow
[18] = pre-emergence, Preemergence, read-out: Plant response rating (scale 0 to 100), Nutsedge, Yellow
[19] = pre-emergence, Preemergence, scale 0 to 100 (0 no effect, 100 complete control), read-out: Plant response rating, Nutsedge, Yellow
[20] = post-emergence, Postemergence, scale 0 to 100, 0 no effect, 100 complete control, read-out: Plant response rating, Soybean
[21] = pre-emergence, Preemergence, read-out: Plant response rating (scale 0 to 100), Soybean
[22] = pre-emergence, Preemergence, scale 0 to 100 (0 no effect, 100 complete control), read-out: Plant response rating, Soybean
[23] = post-emergence, Postemergence, scale 0 to 100, 0 no effect, 100 complete control, read-out: Plant response rating, Crabgrass, Large
[24] = pre-emergence, Preemergence, read-out: Plant response rating (scale 0 to 100), Crabgrass, Large
[25] = pre-emergence, Preemergence, scale 0 to 100 (0 no effect, 100 complete control), read-out: Plant response rating, Crabgrass, Large

FC(F)c1cc(-c2ccccc2Oc2ncc(Br)cn2)no1 [Compound 62, 5-bromo-2-[2-[5-(difluoromethyl)-3-isoxazolyl]phenoxy]pyrimidine]
90%: pest or weed control at 125 g/ha [4, 11] | pest or weed control at 500 g/ha [5, 12]
0%: Corn plant response rating (crop injury, 0 = no effect, 100 = complete kill) at 125 g/ha [1, 13] | plant injury at 125 g/ha [3, 11] | pest or weed control at 31 g/ha [7, 19]
60%: pest or weed control at 250 g/ha [7, 18] | plant injury at 31 g/ha [8, 22]
65%: pest or weed control at 250 g/ha [9, 23]
95%: plant injury at 62 g/ha [8, 20] | plant injury at 250 g/ha [8, 21] | pest or weed control at 31 g/ha [9, 25] | pest or weed control at 62 g/ha ([10]; 62 g ai/ha, scale 0 to 100, 0 no effect, 100 complete control, read-out: Plant response rating, Morningglory)
30%: plant injury at 500 g/ha [3, 12] | plant injury at 500 g/ha [3, 13]
98%: plant injury at 125 g/ha [8, 20] | plant injury at 250 g/ha [8, 20]
5%: pest or weed control at 31 g/ha ([7]; post-emergence, Postemergence, scale 0 to 100 (0 no effect, 100 complete control), read-out: Nutsedge, Yellow plant response rating) | pest or weed control at 62 g/ha [7, 17] | pest or weed control at 125 g/ha [7, 17] | pest or weed control at 62 g/ha [7, 19]
85%: pest or weed control at 31 g/ha ([6]; post-emergence, Postemergence, scale 0 to 100 (0 no effect, 100 complete control), read-out: Galium plant response rating) | pest or weed control at 62 g/ha [6, 14] | plant injury at 125 g/ha [8, 21] | pest or weed control at 31 g/ha ([10]; 31 g ai/ha, scale 0 to 100 (0 no effect, 100 complete control), read-out: Morningglory plant response rating)
50%: Corn plant response rating (crop injury, 0 = no effect, 100 = complete kill) at 500 g/ha [1, 12] | pest or weed control at 125 g/ha [9, 23]
80%: pest or weed control at 125 g/ha [4, 13] | pest or weed control at 125 g/ha [5, 11] | plant injury at 31 g/ha ([8]; post-emergence, Postemergence, scale 0 to 100 (0 no effect, 100 complete control), read-out: Soybean plant response rating)
35%: pest or weed control at 62 g/ha [9, 23]
20%: Corn plant response rating (crop injury, 0 = no effect, 100 = complete kill) at 500 g/ha [1, 13] | plant injury at 125 g/ha [3, 13]
70%: plant injury at 62 g/ha [8, 22]
100%: pest or weed control at 125 g/ha [2, 11] | pest or weed control at 500 g/ha [2, 12] | pest or weed control at 125 g/ha [2, 13] | pest or weed control at 500 g/ha [2, 13] | pest or weed control at 500 g/ha [4, 12] | pest or weed control at 500 g/ha [4, 13] | pest or weed control at 125 g/ha [5, 13] | pest or weed control at 500 g/ha [5, 13] | pest or weed control at 125 g/ha [6, 14] | pest or weed control at 250 g/ha [6, 14] | pest or weed control at 125 g/ha [6, 15] | pest or weed control at 250 g/ha [6, 15] | pest or weed control at 31 g/ha [6, 16] | pest or weed control at 62 g/ha [6, 16] | pest or weed control at 125 g/ha [9, 24] | pest or weed control at 250 g/ha [9, 24] | pest or weed control at 62 g/ha [9, 25]
55%: pest or weed control at 31 g/ha ([9]; post-emergence, Postemergence, scale 0 to 100 (0 no effect, 100 complete control), read-out: Crabgrass, Large plant response rating)
10%: Corn plant response rating (crop injury, 0 = no effect, 100 = complete kill) at 125 g/ha [1, 11] | pest or weed control at 250 g/ha [7, 17] | pest or weed control at 125 g/ha [7, 18]
